Reference: patent US9018187B2, “Cationic lipids and methods for the delivery of therapeutic agents” (Protiva Biotherapeutics, Inc., priority 2009, dated 2015)

Columns and labels:
[1] = TNS assay, apparent pKa of cationic lipid in 1:57 SNALP; details: 1:57 SNALP formulation containing encapsulated APOB siRNA
Procedure: 1:57 SNALP formulations containing encapsulated APOB siRNA were prepared as described in Section VI above with the following cationic lipids: (1) DLinDMA; (2) DLenDMA; (3) γ-DLenDMA (“g-DLenDMA”); (4) C2-DLinDAP; (5) DLinPip (4-OH); (6) DLinPip; (7) DLinPip (3-OH); (8) DLinDEA; (9) DDocDMA; (10) DAraDMA; (11) TLinDMA; (12) DLin-C2K Pip (30H); (13) DHep-C2K-DMA; (14) DPanDMA; (15) C2-DPanDMA (“DPan-C2-DMA”); (16) DPan-C2K-DMA; (17) DPan-C3K-DMA; (18) DPan-K6-DMA (“DPan-C1K6-DMA”); and (19) C2-TLinDMA.
The apparent pKa of the cationic lipids present in these SNALP formulations was determined using a 2-(p-toluidinyl)-naphthalene-6-sodium sulfonate (TNS) assay. TNS is a negatively-charged indicator of membrane potential that is electrostatically attracted to positively charged membranes (see, Bailey and Cullis, Biochemistry, 33 12573-80 (1994)). Subsequent adsorption to the lipid membrane results in the immediate environment of the TNS becoming more lipophilic, removing the water molecules that otherwise quench TNS fluorescence. As a result, TNS measures the surface potential of the particle, wherein the more positive the surface potential, the greater the level of fluorescence. The surface pKa values of each SNALP formulation were determined by varying the local pH in the presence of TNS. By plotting fluorescence versus pH, the pKa of the cationic lipid can be estimated in the particle as the pH where fluorescence equals 50% of total fluorescence.

liver ApoB mRNA = assay: Liver ApoB mRNA knockdown by 1:57 SNALP with APOB siRNA in mice; type: in vivo, mouse; details: for ApoB knockdown: similar study with 1:57 SNALP containing C2-TLinDMA (Example 16); for ApoB silencing activity (liver ApoB mRNA): 6:1 L:D, IV 0.1 mg/kg
Procedure: Each SNALP formulation was administered by intravenous (IV) injection at 0.1 mg/kg into female Balb/c mice (n=3 per group). Plasma total cholesterol and/or liver ApoB mRNA levels were evaluated at 48 hours after SNALP administration. For dose response studies, SNALP formulations were administered by IV injection at 0.01 mg/kg, 0.03 mg/kg, or 0.1 mg/kg into female Balb/c mice (n=3 per group). Liver ApoB mRNA levels were evaluated at 48 hours after SNALP administration.
1:57 SNALP formulations containing encapsulated APOB siRNA at a 6:1 lipid:drug (L:D) ratio were prepared with the following cationic lipids: (1) DLinDMA; (2) Linoleyl/Linolenyl DMA (“Lin/LenDMA”); (3) DPanDMA; (4) TLinDMA; (5) Linoleyl/C6:0 DMA (“Lin/6:0”); (6) C2-DPanDMA; (7) DLin-C2K-Pip (30H); and (8) DHep-C2K-DMA.
(§1) Each SNALP formulation was administered by intravenous (IV) injection at 0.1 mg/kg into female Balb/c mice (n=3 per group). Livers were colleted at 48 hours after SNALP administration and liver ApoB mRNA levels were evaluated by performing an ApoB/GAPDH QG assay. Table 2 provides a characterization of the SNALP formulations used in this in vivo study.
In another study, 1:57 SNALP formulations containing encapsulated APOB siRNA at a 6:1 L:D ratio were prepared with the following cationic lipids: (1) DLinDMA; (2) C2-DPanDMA; (3) DPan-C2K-DMA; (4) DPan-C3K-DMA; and (5) DPan-C1K6-DMA.
as §1, with “3” for “2”
For dose response studies, SNALP formulations were administered by IV injection at 0.01 mg/kg, 0.033 mg/kg, or 0.1 mg/kg into female Balb/c mice (n=3 per group). Liver ApoB mRNA levels were evaluated at 48 hours after SNALP administration by a branched DNA assay (QuantiGene assay) to assess ApoB mRNA relative to the housekeeping gene GAPDH.

[2] = Tolerability of 1:57 SNALP, liver enzyme levels; type: in vivo, mouse; details: FIG. 7, single IV bolus 10, 15 or 20 mg/kg, Balb/c mice, 48 hours post-injection, vs PBS control
Procedure: The tolerability of the 1:57 γ-DLenDMA SNALP formulation was evaluated with a single IV bolus injection of SNALP at either 10 mg/kg, 15 mg/kg, or 20 mg/kg in Balb/c mice (n=3 per group). Liver enzyme levels were measured at 48 hours post-injection.

[3] = test system: ApoB mRNA in ApoE−/− primary hepatocytes; assay: ApoB silencing in ApoE−/− primary hepatocytes after serum pre-incubation of SNALP; type: cell-based, mouse; details: FIGS. 12-14; 1:57 SNALP pre-incubated with C57 or ApoE−/− serum, 40-0.625 nM siRNA on hepatocytes, 24 hr
Procedure: ApoE−/− primary hepatocytes were isolated and plated at 2.5×10^4 cells/well. Each SNALP formulation was pre-incubated with 50% C57 (ApoE-containing) serum or ApoE−/− serum at siRNA concentrations of 4000-62.5 nM for 1 hr at 37° C. Samples were then diluted to 40-0.625 nM on the hepatocytes for 24 hr. After 24 hr, cells were lysed and ApoB and GAPD mRNA levels were measured via bDNA (QG) assay.

[4] = Characterization of SNALP formulations (size, polydispersity, encapsulation); type: physicochemical; details: Table 5; for Initial Encaps. (%): 7:54 SNALP (PEG750-C-DMA 6.76 | cationic 54.06 | Chol 32.43 | DPPC 6.75 mol %) with PLK-1 siRNA; for Finished Product Encaps. (%) / Finished Product Poly / Finished Product Z-Avg (nm): 7:54 SNALP with PLK-1 siRNA
Procedure: In the context of nucleic acids, full encapsulation may be determined by performing a membrane-impermeable fluorescent dye exclusion assay, which uses a dye that has enhanced fluorescence when associated with nucleic acid. Specific dyes such as OliGreen® and RiboGreen® (Invitrogen Corp.; Carlsbad, Calif.) are available for the quantitative determination of plasmid DNA, single-stranded deoxyribonucleotides, and/or single- or double-stranded ribonucleotides. Encapsulation is determined by adding the dye to a liposomal formulation, measuring the resulting fluorescence, and comparing it to the fluorescence observed upon addition of a small amount of nonionic detergent. Detergent-mediated disruption of the liposomal bilayer releases the encapsulated nucleic acid, allowing it to interact with the membrane-impermeable dye. Nucleic acid encapsulation may be calculated as E=(Io−I)Io, where I and Io refer to the fluorescence intensities before and after the addition of detergent (see, Wheeler et al., Gene Ther., 6:271-281 (1999)). […]
Each SNALP formulation was administered by intravenous (IV) injection at 3 mg/kg into Scid mice containing Hep3B tumors (n=4 per group). Tumor tissue was colleted at 24 hours after SNALP administration and tumor PLK-1 mRNA levels were evaluated by performing a PLK-1/GAPDH QG assay. Table 5 provides a characterization of the SNALP formulations used in this in vivo study.

[5] = Example 16, FIG. 8, 1:57 SNALP, female Balb/c mice, 48 hours, ApoB/GAPDH QG assay
[6] = Example 16 second study, FIG. 9, 1:57 SNALP, female Balb/c mice, 48 hours

Row | SMILES | pKa [1] | Initial Encaps. (%) [4] [%] | Finished Product Encaps. (%) [4] [%] | Finished Product Poly [4] | Finished Product Z-Avg (nm) [4] [nm] | also measured
1 | CCCCC/C=C\C/C=C\CCCCCCCCOCC(COCC(CCN(C)C)OCCCCCCCC/C=C\C/C=C\CCCCC)OCCCCCCCC/C=C\C/C=C\CCCCC (stereo not drawn) [Compound C2-TLinDMA] | ~5.85 | – | – | – | – | ApoB knockdown (liver ApoB mRNA): 49%
2 | CCCCC/C=C\C/C=C\C/C=C\C/C=C\CCCCOCC(CN(C)C)OCCCC/C=C\C/C=C\C/C=C\C/C=C\CCCCC (stereo not drawn) [DAraDMA, 1,2-Diarachidonyloxy-(N,N-dimethyl)-propyl-3-amine] | ~5.65 | – | – | – | – | –
3 | CC/C=C\C/C=C\C/C=C\C/C=C\C/C=C\C/C=C\CCCOCC(CN(C)C)OCCC/C=C\C/C=C\C/C=C\C/C=C\C/C=C\C/C=C\CC (stereo not drawn) [DDocDMA, 1,2-Didocosahexaenyloxy-(N,N-dimethyl)-propyl-3-amine] | ~5.65 | – | – | – | – | –
4 | CCCCCCCC/C=C/CCCCCCCC1(CCCCCCC/C=C/CCCCCCCC)OCC(CCN(C)C)O1 (stereo not drawn) [DHep-C2K-DMA] | ~6.05 | – | – | – | – | ApoB silencing activity (liver ApoB mRNA) (liver ApoB mRNA; [5]): comparable to DLinDMA with respect to silencing activity
5 | CC/C=C\C/C=C\C/C=C\CCCCCCCCC1(CCCCCCCC/C=C\C/C=C\C/C=C\CC)OCC(CCN(C)C)O1 (stereo not drawn) [DLen-C2K-DMA] | – | – | – | – | – | liver ApoB mRNA knockdown activity (liver ApoB mRNA; Example 17, FIG. 10, 1:57 SNALP, IV 0.01, 0.033 or 0.1 mg/kg, female Balb/c mice, 48 hours, QuantiGene assay vs GAPDH): considerable potency in silencing ApoB mRNA expression
6 | CC/C=C\C/C=C\C/C=C\CCCCCCCCOCC(CN(C)C)OCCCCCCCC/C=C\C/C=C\C/C=C\CC (stereo not drawn) [DLenDMA, 1,2-dilinolenyloxy-N,N-dimethylaminopropane, reference compound] | – | – | – | – | – | liver enzyme levels [2]: did not significantly elevate liver enzyme levels; ApoB silencing activity and its dependence on ApoE [3]: greatest levels of silencing activity when ApoE-containing serum was present
7 | CCCCC/C=C\C/C=C\CCCCCCCCC1(CCCCCCCC/C=C\C/C=C\CCCCC)OCC(CCCN(C)C)O1 (stereo not drawn) [DLin-C3K-DMA] | – | – | – | – | – | ApoB silencing activity and its dependence on ApoE [3]: less dependent on ApoE compared to other formulations tested
8 | CCCCCC=CCC=CCCCCCCCCC1(CCCCCCCC/C=C\C/C=C\CCCCC)OCC(CCCCN(C)C)O1 (stereo not drawn) [DLin-C4K-DMA] | – | – | – | – | – | ApoB silencing activity and its dependence on ApoE [3]: less dependent on ApoE compared to other formulations tested
9 | CC/C=C\C/C=C\C/C=C\CCCCCCCCOC(COCCCCCCCC/C=C\C/C=C\CCCCC)CN(C)C (stereo not drawn) [Linoleyl/Linolenyl DMA] | – | – | – | – | – | liver ApoB mRNA knockdown activity (silencing ApoB expression) (liver ApoB mRNA; Example 14, FIGS. 3-6, 1:57 SNALP with APOB siRNA, IV 0.1 mg/kg (dose response 0.01, 0.03, 0.1 mg/kg), female Balb/c mice, 48 hours): greater ApoB silencing activity compared to a SNALP formulation containing DLinDMA; ApoB silencing activity (liver ApoB mRNA) (liver ApoB mRNA; [5]): more potent silencing activity than DLinDMA
10 | CCCCC/C=C\C/C=C\C/C=C\CCCCCC1(CCCCC/C=C\C/C=C\C/C=C\CCCCC)OCC(CCN(C)C)O1 (stereo not drawn) [g-DLen-C2K-DMA] | – | – | – | – | – | KD50 value (liver ApoB mRNA; Example 17, FIG. 10, liver ApoB mRNA knockdown dose response): identical KD50 value compared to a SNALP formulation containing C2K
11 | CCCCC/C=C\C/C=C\C/C=C\CCCCCOCC(CN(C)C)OCCCCC/C=C\C/C=C\C/C=C\CCCCC (stereo not drawn) [γ-DLenDMA, 1,2-Di-γ-linolenyloxy-N,N-dimethylaminopropane] | – | – | – | – | – | liver enzyme levels [2]: did not significantly elevate liver enzyme levels

The next lines start with results.

Row | pKa [1] | Initial Encaps. (%) [4] [%] | Finished Product Encaps. (%) [4] [%] | Finished Product Poly [4] | Finished Product Z-Avg (nm) [4] [nm] | SMILES | also measured
12 | – | 56 | 98 | 0.05 | 84 | CCCCC/C=C\C/C=C\CCCCCCCCC1(CCCCCCCC/C=C\C/C=C\CCCCC)OCC(CN(C)C)O1 (stereo not drawn) [DLin-C1K-DMA, reference compound] | –
13 | ~6.05 | – | – | – | – | CCCCC/C=C\C/C=C\CCCCCCCCC1(CCCCCCCC/C=C\C/C=C\CCCCC)OCC(CCN2CCCC(O)C2)O1 (stereo not drawn) [DLin-C2K Pip (30H)] | –
14 | – | 75 | 98 | 0.08 | 74 | CCCCC/C=C\C/C=C\CCCCCCCCOCC(CN(C)C)OCCCCCCCC/C=C\C/C=C\CCCCC (stereo not drawn) [DLinDMA, 1,2-dilinoleyloxy-N,N-dimethylaminopropane, reference compound] | ApoB knockdown (liver ApoB mRNA): 25%
15 | ~5.5 | 71 | 99 | 0.06 | 80 | CC(C)CCCC(C)CCCC(C)CCCC(C)CCC1(CCC(C)CCCC(C)CCCC(C)CCCC(C)C)OCC(CN(C)C)CO1 (stereo not drawn) [DPan-C1K6-DMA] | –
16 | ~5.95 | 84 | 100 | 0.08 | 76 | CC(C)CCCC(C)CCCC(C)CCCC(C)CCC1(CCC(C)CCCC(C)CCCC(C)CCCC(C)C)OCC(CCN(C)C)O1 (stereo not drawn) [DPan-C2K-DMA] | ApoB silencing activity (liver ApoB mRNA) (liver ApoB mRNA; [6]): more potent compared to DLinDMA
17 | ~6.25 | 86 | 100 | 0.06 | 81 | CC(C)CCCC(C)CCCC(C)CCCC(C)CCC1(CCC(C)CCCC(C)CCCC(C)CCCC(C)C)OCC(CCCN(C)C)O1 (stereo not drawn) [DPan-C3K-DMA] | ApoB silencing activity (liver ApoB mRNA) (liver ApoB mRNA; [6]): more potent compared to DLinDMA
18 | ~5.35 | 70 | 100 | 0.07 | 126 | CCCCC/C=C\C/C=C\CCCCCCCCOCC(COCC(CN(C)C)OCCCCCCCC/C=C\C/C=C\CCCCC)OCCCCCCCC/C=C\C/C=C\CCCCC (stereo not drawn) [TLinDMA, 1-(2,3-linoleyloxypropoxy)-2-(linoleyloxy)-(N,N-dimethyl)-propyl-3-amine] | ApoB silencing activity (liver ApoB mRNA) (liver ApoB mRNA; [5]): silencing activity that was comparable to DLinDMA
